The values below are quoted from earlier work in patent US10293012B2 (priority 2017, dated 2019).

The test system of this data set is HSV1.

In the case of heparin [Soluble heparin], the “inhibition of HSV1 infection” value is “competitively inhibit”.
